We go through four molecules from patent US8710180B2, “VEGF-specific capture agents, compositions, and methods of using and making” (Indi Molecular, Inc., priority 2011, dated 2014).

“And” between values parts separate entries of the source, which are not always exact repeats. Equal values may be shown once. Read-outs that look alike come from different tables or passages of the source. Where a SMILES comes first, the peptide text is derived from it. Bridges are numbered along the chain shown (N, C = ends). Roman numbers before positions name the chains, in order. Triazole bridges read from a SMILES are 1,4-linked. [ ]: non-standard residue; d: D form. Lys(N3) = [N-]=[N+]=NCCCC[C@H](N)C(=O)O; Az4 = C-terminal azide group; dPra = C#CC[C@@H](N)C(=O)O; code X = not defined here

Data set [1] can be described thus: plasma protein binding by equilibrium dialysis. The class given is in vitro ADME. To be noted: 10 μM, 37° C. overnight. The protocol:
Equilibrium dialysis techniques were used to separate the fraction of unbound test compound from the fraction that is bound to protein.
Assays were carried out in a 96-well format in a dialysis block constructed from Teflon. The protein matrix was spiked with the test compound at 10 μM (n=2) with a final DMSO concentration of 1% (v/v). The dialysate compartment was loaded with 150 μL phosphate buffer (pH 7.5) and the sample side was loaded with equal volume of the spiked protein matrix. The dialysis plate was then sealed and incubated at 37° C. overnight (18±2 hours). After the incubation, samples were taken from each compartment, diluted with the phosphate buffer followed by addition of acetonitrile and centrifugation. The supernatants were then used for HPLC-MS/MS analysis. A control sample (n=2) was prepared from the spiked protein matrix in the same manner as the assay samples (without dialysis). This control sample served as the basis for the recovery determination. Samples were analyzed by HPLC-MS/MS using selected reaction monitoring. The HPLC conditions consisted of a binary LC pump with autosampler, a C18 column (2×20 mm), and gradient elution. The percent bound to proteins and the recovery were calculated as follows:
[formula] […] The recovery determination served as an indicator of reliability of the calculated protein binding value.

Data set [2] relates to Human umbilical vein endothelial cells (HUVECs). In words: inhibition of HUVEC proliferation. The conditions noted are these: 48 h, read-out: IC50 (antagonist). The class given is cell-based.
Experimental: HUVECs were cultured in M199 medium (pH 7.4) in 5% CO2 at 37° C. for 18 hours. Test compound and/or vehicle were incubated with cells (1.1×10^5/mL) in the presence of heparin (10 μg/mL) and 0.5% FBS at 37° C. for 48 hours. Capture agents were screened at 10, 1, 0.1, 0.01 and 0.001 μM and in duplicate. […] Subsequently, the reagent Calcein AM dye (20 μg/ml) was added for an additional 50 minute incubation period. Fluorescence intensity was read on SpectroFluor Plus plate reader.
The nature of data set [3]: plasma concentrations and pharmacokinetics of VEGF-PCC after a single IV or IP dose in mice, LC-MS/MS. The class given is in vivo, mouse. To be noted: for Plasma concentration: individual animal; for C0: iv. The source says: Test article: VEGF-PCC (IN-VT-1001 Triligand) (PCC monomer) Ac-[…]-Tz4-lfrew-Tz4-eeird (SEQ ID NO: 71). The underlined region inclusive of the Cys residues is cyclized by a disulfide bond, Ac=N-terminal acetylation, and Tz4=1,4-disubstituted 1,2,3-triazole.
The LC-MS/MS system for analysis was comprised of an Agilent 1200 high performance liquid chromatography (HPLC) and a 5500 Qtrap mass spectrometer (Applied Biosystems by Life Technologies, Carlsbad, Calif.).
Concentrations of VEGF-PCC in mouse plasma were determined using a non-validated LC MS/MS assay with Angiotensin I as the internal standard following a solid phase extraction method. Individual VEGF-PCC calibration and QC standards were prepared from the respective intermediate stock solutions by addition to naïve mouse plasma. The target working range of the calibration curve was 50 to 5,000 ng/mL in plasma and the target concentrations of the QC standards were 150 to 3,750 ng/mL in plasma for VEGF-PCC.
Mice received a single IV dose of VEGF-PCC at 1 mg/kg. A summary of the plasma concentrations for individual animals is shown in Table A. Plasma pharmacokinetic parameters are listed in Table 9.
Mice received a single IP dose of VEGF-PCC at 5 mg/kg. A summary of the plasma concentrations for individual animals is shown in Table B. Plasma pharmacokinetic parameters are listed in Table 9.

In data set [4] the target is T1, human VEGF165 binding to VEGFR2 (KDR) (Homo sapiens, UniProt P15692).
T1 construct: biotin (chemical labelling, Sulfo-NHS-LC-biotin); purchased R&D Systems (partner VEGFR2-Fc only)
T1 sequence (P15692 27-191 isoform P15692-4): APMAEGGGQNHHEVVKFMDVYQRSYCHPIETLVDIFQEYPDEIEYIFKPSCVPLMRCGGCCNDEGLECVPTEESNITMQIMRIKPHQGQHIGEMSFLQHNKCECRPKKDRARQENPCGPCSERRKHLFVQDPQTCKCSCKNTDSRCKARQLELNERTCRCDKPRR
The data set is described as follows: competitive ELISA, inhibition of VEGF165 binding to VEGFR2. The conditions noted are these: concentrations tested <50 μM. The protocol: The solutions from the tubes were then transferred to the ELISA plates and incubated for 5 minutes. […] Using an excitation wavelength of 535 nm, fluorescent emission at 595 nm was recorded by Beckman Coulter DTX880 photometer (Brea, Calif.) as a function of capture agent concentration. The titration curves were fit using a four-parameter regression curve fitting program (Origin 8.5, Northampton, Mass.). Concentrations of peptides corresponding to the midpoint absorbance of the titration curve were calculated and used as the IC50 values.

[5] abbreviates: in vivo, mouse plasma, IP, 5 mg/kg.
[6] abbreviates: in vivo, mouse plasma, IV, 1 mg/kg.

On to `C=C(NC(=O)[C@@H]1CCCN1C(=O)[C@H](CCC(=O)O)NC(=O)[C@@H](C)C(C)C)C(=O)N[C@@H]1CSSCC(C(=O)N[C@@H](Cc2ccccc2)C(=O)NC(CCC(=O)O)C(=O)NC(CCCN)C(=O)N[C@@H](CC(C)C)C(=O)NC(CCCCn2cc(CC(N)C(=O)NC(Cc3ccccc3)C(=O)N[C@H](CO)C(=O)N[C@H](CCCNC(=N)N)C(=O)NC(CCCCN)C(=O)N[C@@H](C(=O)NC(CCC(=O)O)C(N)=O)C(C)O)nn2)C(=O)O)NC(=O)[C@H](CCC(=O)O)NC(=O)[C@H](Cc2c[nH]c3ccccc23)NC(=O)[C@H](CCC(=O)O)NC(=O)[C@H](Cc2c[nH]c3ccccc23)NC(=O)[C@H](CCSC)NC(=O)[C@H](C(C)C)NC(=O)[C@H](Cc2cnc[nH]2)NC(=O)C([C@@H](C)CC)NC(=O)[C@H](CC(=O)O)NC1=O` (stereo partly shown) [Biligand 3], for which, in data set [1], the plasma protein binding entry was “higher levels of plasma protein binding”.

As for `Cc1cc(C)c(/C=C2\C(=O)Nc3ccccc32)[nH]1` [SU5416], in data set [2], the IC50 amounted to 0.048 µM.

Consider `CC[C@@H](C)[C@@H](NC(=O)[C@@H](CCC(=O)O)NC(=O)[C@@H](CCC(=O)O)NC(=O)[C@H](N)Cc1cn(CCCC[C@H](NC(=O)[C@@H](Cc2c[nH]c3ccccc23)NC(=O)[C@@H](CCC(=O)O)NC(=O)[C@@H](CCCNC(=N)N)NC(=O)[C@@H](Cc2ccccc2)NC(=O)[C@@H](CC(C)C)NC(=O)[C@H](N)Cc2cn(CCCC[C@H](NC(=O)[C@H](CC(C)C)NC(=O)[C@H](CCCNC(=N)N)NC(=O)[C@H](CCC(=O)O)NC(=O)[C@H](Cc3ccccc3)NC(=O)[C@@H]3CSSC[C@H](NC(=O)[C@H](CC(N)=O)NC(=O)[C@@H]4CCCN4C(=O)[C@H](CCC(=O)O)NC(=O)[C@@H](NC(C)=O)C(C)C)C(=O)N[C@@H](CC(=O)O)C(=O)N[C@@H]([C@@H](C)CC)C(=O)N[C@@H](Cc4c[nH]cn4)C(=O)N[C@@H](C(C)C)C(=O)N[C@@H](CCSC)C(=O)N[C@@H](Cc4c[nH]c5ccccc45)C(=O)N[C@@H](CCC(=O)O)C(=O)N[C@@H](Cc4c[nH]c5ccccc45)C(=O)N[C@@H](CCC(=O)O)C(=O)N3)C(=O)O)nn2)C(=O)O)nn1)C(=O)N[C@H](CCCNC(=N)N)C(=O)N[C@H](CC(=O)O)C(N)=O` [VEGF-PCC] (I: Ac-VEPNCDIHVMWEWECFERL[Lys(N3)]-OH / II: H-[dPra][dL][dF][dR][dE][dW][Lys(N3)]-OH / III: H-[dPra][dE][dE][dI][dR][dD]-NH2; disulfide I:5-I:15; triazole I:20-II:1, II:7-III:1), for which the AUC(0-inf) in data set [3] (setting [5]) was 32200 ng·h/mL; in data set [3] (setting [6]), 6490 ng·h/mL. Besides, the values for the AUC(0-t) in data set [3] (setting [5]) and in data set [3] (setting [6]) were 31500 ng·h/mL and 6070 ng·h/mL, respectively. This molecule also came in with a Cmax in data set [3] (setting [5]) of 19800 ng/mL. In addition, in data set [3] (setting [5]), the Tmax was determined as 30 min. The same molecule returned a clearance in data set [3] (setting [6]) of 2.57 mL/min/kg. Also, in data set [3] (setting [6]), the half-life was 35.9 min. The Vd in data set [3] (in vivo, mouse plasma, IV, 1 mg/kg, read-out: Vss) stood at 0.0967 L/kg. The Plasma concentration in data set [3] (IP 5 mg/kg, 10 minutes postdose, listed as IN-VT-1001, 5 mg/kg) is 17500 ng/mL and 17000 ng/mL and 13400 ng/mL; in data set [3] (IP 5 mg/kg, 30 minutes postdose, listed as IN-VT-1001, 5 mg/kg), 19400 ng/mL and 20200 ng/mL and BLQ; in data set [3] (IP 5 mg/kg, 60 minutes postdose, listed as IN-VT-1001, 5 mg/kg), 10800 ng/mL and 23900 ng/mL and 11500 ng/mL; in data set [3] (IP 5 mg/kg, 120 minutes postdose, listed as IN-VT-1001, 5 mg/kg), “BLQ and 4730 ng/mL and 3640 ng/mL”; in data set [3] (IP 5 mg/kg, 240 minutes postdose, listed as IN-VT-1001, 5 mg/kg), 259 ng/mL and 807 ng/mL and BLQ; in data set [3] (IP 5 mg/kg, 360 minutes postdose, listed as IN-VT-1001, 5 mg/kg) it was 390 ng/mL and BLQ (2×). The Plasma concentration result in data set [3] (IP 5 mg/kg, 480 minutes postdose) is “BLQ”; in data set [3] (IP 5 mg/kg, 1440 minutes postdose), “BLQ”; in data set [3] (IV 1 mg/kg, 3 minutes postdose, listed as IN-VT-1001, 1 mg/kg) it was 14200 ng/mL and 16200 ng/mL and 12000 ng/mL; in data set [3] (IV 1 mg/kg, 10 minutes postdose, listed as IN-VT-1001, 1 mg/kg), 7220 ng/mL and 7550 ng/mL and 6110 ng/mL; in data set [3] (IV 1 mg/kg, 30 minutes postdose, listed as IN-VT-1001, 1 mg/kg) it was 2170 ng/mL and 2210 ng/mL and 3420 ng/mL; in data set [3] (IV 1 mg/kg, 60 minutes postdose, listed as IN-VT-1001, 1 mg/kg), 1840 ng/mL and 2380 ng/mL and 1870 ng/mL. Further, the Plasma concentration in data set [3] (IV 1 mg/kg, 120 minutes postdose, listed as IN-VT-1001, 1 mg/kg) was 551 ng/mL and 400 ng/mL and 514 ng/mL; in data set [3] (IV 1 mg/kg, 240 minutes postdose), “BLQ”; in data set [3] (IV 1 mg/kg, 360 minutes postdose), “BLQ”; in data set [3] (IV 1 mg/kg, 1440 minutes postdose), “BLQ”. Also, the Mean plasma concentration is listed as 0.00 ng/mL in data set [3] (mean, IP 5 mg/kg, 480 minutes postdose); 0.00 ng/mL in data set [3] (mean, IP 5 mg/kg, 1440 minutes postdose); 0.00 ng/mL in data set [3] (mean, IV 1 mg/kg, 240 minutes postdose); 0.00 ng/mL in data set [3] (mean, IV 1 mg/kg, 360 minutes postdose); 0.00 ng/mL in data set [3] (mean, IV 1 mg/kg, 1440 minutes postdose). Besides, the “AUC % Ext” value in data set [3] (mouse plasma, IP, 5 mg/kg) was determined as 2.04%; in data set [3] (mouse plasma, IV, 1 mg/kg), 6.49%. Besides, in data set [3] (mouse, in vivo, ip, 5 mg/kg, mouse plasma, IP, 5 mg/kg, read-out: F (relative bioavailability)), the bioavailability was about 99%. The C0 in data set [3] (mouse, in vivo, 1 mg/kg, assuming IV dose 1 mg/kg, body weight 33 g, blood volume approximately 1.7 mL, read-out: theoretical C0) is about 19400 ng/mL; in data set [3] (mouse, in vivo, 1 mg/kg, mouse plasma, IV, 1 mg/kg, read-out: C0 (back-calculated)) it was 19100 ng/mL. The level at 10 min in data set [3] (mouse, plasma, mean, IP 5 mg/kg, 10 minutes postdose, read-out: Mean plasma concentration) came to 16000 ng/mL; in data set [3] (mouse, plasma, mean, IV 1 mg/kg, 10 minutes postdose, read-out: Mean plasma concentration), 6960 ng/mL. The level at 0.5 h came out at 13200 ng/mL in data set [3] (mouse, plasma, mean, IP 5 mg/kg, 30 minutes postdose, read-out: Mean plasma concentration) and 2600 ng/mL in data set [3] (mouse, plasma, mean, IV 1 mg/kg, 30 minutes postdose, read-out: Mean plasma concentration). Further, the level at 1 h came to 15400 ng/mL in data set [3] (mouse, plasma, mean, IP 5 mg/kg, 60 minutes postdose, read-out: Mean plasma concentration) and 2030 ng/mL in data set [3] (mouse, plasma, mean, IV 1 mg/kg, 60 minutes postdose, read-out: Mean plasma concentration). Further, the level at 2 h came to 2790 ng/mL in data set [3] (mouse, plasma, mean, IP 5 mg/kg, 120 minutes postdose, read-out: Mean plasma concentration) and 488 ng/mL in data set [3] (mouse, plasma, mean, IV 1 mg/kg, 120 minutes postdose, read-out: Mean plasma concentration). In addition, in data set [3] (mouse, plasma, mean, IP 5 mg/kg, 240 minutes postdose, read-out: Mean plasma concentration), the level at 4 h was determined as 355 ng/mL. The level at 6 h in data set [3] (mouse, plasma, mean, IP 5 mg/kg, 360 minutes postdose, read-out: Mean plasma concentration) turned out to be 130 ng/mL. For the same molecule, in data set [3] (mouse, plasma, mean, IV 1 mg/kg, 3 minutes postdose, read-out: Mean plasma concentration), the level at 0.05 h worked out at 14100 ng/mL.

Regarding “X-VEPNCDIHVMWEWECFERL-Az4 ({code X}-VEPNCDIHVMWEWECFERL-Az4; cysteine pairing not given here; reading uncertain) [anchor, reference compound]”, in data set [4], the “blocking of receptor binding at the concentrations tested” value is listed as “Neither the anchor nor Biligand 2 blocked receptor binding”.
